Measurements published in patent publication US12336981B2, “Compounds and compositions for the inhibition of NAMPT” (Valo Health, Inc., priority 2010, dated 2025).
Read-outs that look alike come from different tables or passages of the source.

How the values were obtained:
NAMPT = target: T1, NAMPT (Homo sapiens, UniProt P43490); assay: Biochemical inhibition assay: NAMPT enzymatic reaction, NMN quantified by mass spectrometry; conditions: read-out: Biochem IC50
T1 construct: His tag; host or cells: E. coli
How it was run: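 Inhibition of E. coli-expressed His-tagged human NAMPT, measured as NMN formation by mass spectrometry after a 30 min room-temperature reaction containing 1 μM NAM, 100 μM PRPP and 2.5 mM ATP.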

A2780 cells = assay: In-vitro cell proliferation assay (SRB), A2780 cells; type: cell-based; conditions: A2780 cells, 72 hours, SRB, read-out: A2780 IC50
How it was run: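 Viable cells measured by SRB staining after 6% TCA fixation, absorbance 570 nm. Media-only background subtracted; % inhibition derived at two compound concentrations.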

T1 sequence (P43490 whole entry): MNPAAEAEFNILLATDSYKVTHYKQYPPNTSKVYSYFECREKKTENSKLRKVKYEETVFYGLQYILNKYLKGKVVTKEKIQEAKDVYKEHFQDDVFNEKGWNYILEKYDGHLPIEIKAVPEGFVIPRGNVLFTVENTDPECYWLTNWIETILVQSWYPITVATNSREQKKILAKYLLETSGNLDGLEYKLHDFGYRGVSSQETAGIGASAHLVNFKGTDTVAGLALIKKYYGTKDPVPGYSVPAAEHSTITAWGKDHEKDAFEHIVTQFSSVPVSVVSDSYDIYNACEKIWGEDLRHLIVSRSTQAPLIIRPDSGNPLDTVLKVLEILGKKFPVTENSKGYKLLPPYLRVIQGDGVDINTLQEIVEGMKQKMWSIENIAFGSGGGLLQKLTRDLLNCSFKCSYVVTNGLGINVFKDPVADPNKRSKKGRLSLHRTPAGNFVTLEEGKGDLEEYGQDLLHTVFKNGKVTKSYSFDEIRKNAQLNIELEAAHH

Row | SMILES | IC50 (NAMPT; NAMPT enzymatic reaction) [nM] | IC50 (A2780 cells; Homo sapiens, A2780, 72 h) [nM] | IC50 (NAMPT) [nM] | IC50 (A2780 cells) [nM]
1 | O=C(NCc1ccc(S(=O)(=O)c2ccc(-c3ccccc3)cc2)cc1)c1cc2cc(O)ccc2[nH]1 | 100 to 1000 | 1000 to 10000 |  | 
2 | Cc1ccc(S(=O)(=O)c2ccc(CNC(=O)c3cnc4nccn4c3)cc2)c(C)c1 | 2.1 | 49.2 |  | 
3 | Cc1ccc(S(=O)(=O)c2ccc(CNC(=O)c3cc4ccncc4o3)cc2)c(C)c1 | 21.8 | 24 |  | 
4 | O=C(NCc1ccc(S(=O)(=O)c2cc(F)ccc2F)cc1)c1cnc2[nH]ncc2c1 | 100 to 1000 | 392 |  | 
5 | O=C(NCc1ccc(S(=O)(=O)c2cc(Cl)cc(CO)c2)cc1)c1cc2ccncc2s1 |  |  | 3.3 | 0.8
6 | CCCCOc1ccc(S(=O)(=O)c2ccc(CNC(=O)c3cnc4nccn4c3)cc2)cc1F | 1.2 | 3.1 |  | 
7 | CCCCOc1ccc(S(=O)(=O)c2ccc(CNC(=O)c3cc4ccncc4o3)cc2)cc1F | 12.3 | 13.9 |  | 
8 | CCCCOc1ccc(S(=O)(=O)c2ccc(CNC(=O)c3ccc4nccn4c3)cc2)cc1F | 6.2 | 3.1 |  | 
9 | CCCCOc1ccc(S(=O)(=O)c2ccc(CNC(=O)c3ccc4nccn4c3)cc2)cc1 | 3.8 | 2.8 |  | 
10 | CCCCOc1ccc(S(=O)(=O)c2ccc(CNC(=O)c3cc4ccncc4s3)cc2)cc1 | 3.6 | 10.3 |  | 
11 | CCCCc1ccc(S(=O)(=O)c2ccc(CNC(=O)c3cc4cnccc4[nH]3)cc2)cc1 | 14.6 | 35.8 |  | 
12 | CCCCc1ccc(S(=O)(=O)c2ccc(CNC(=O)c3cnc4nccn4c3)cc2)cc1 | 5.3 | 10.7 |  | 
13 | CCCCc1ccc(S(=O)(=O)c2ccc(CNC(=O)c3ccc4nccn4c3)cc2)cc1 | 5.7 | 7.6 |  | 
14 | CCCCc1ccc(S(=O)(=O)c2ccc(CNC(=O)c3cc4ccncc4s3)cc2)cc1 | 2.9 | 26 |  | 
15 | CCOc1cc(Cl)ccc1S(=O)(=O)c1ccc(CNC(=O)c2cc3ccncc3s2)cc1 | 2.4 | < 0.4 |  | 
16 | CCOc1cc(Cl)ccc1S(=O)(=O)c1ccc(CNC(=O)c2cc3cnccc3[nH]2)cc1 | 11.2 | 0.4 |  | 
17 | CCOc1cc(Cl)ccc1S(=O)(=O)c1ccc(CNC(=O)c2ccc3nccn3c2)cc1 | 4.1 | 0.7 |  | 
18 | CCOc1cc(Cl)ccc1S(=O)(=O)c1ccc(CNC(=O)c2cc3ccncc3o2)cc1 | 7.2 | 5.1 |  | 
19 | CCOc1cc(Cl)ccc1S(=O)(=O)c1ccc(CNC(=O)c2cnc3nccn3c2)cc1 | 2 | 4.5 |  | 
20 | COc1cc(Cl)ccc1S(=O)(=O)c1ccc(CNC(=O)c2cnc3nccn3c2)cc1 | 3.3 | 24.7 |  | 
21 | COc1cc(Cl)ccc1S(=O)(=O)c1ccc(CNC(=O)c2cc3ccncc3o2)cc1 | 8.5 | 24.8 |  | 
22 | Cc1cc(Cl)ccc1S(=O)(=O)c1ccc(CNC(=O)c2cnc3nccn3c2)cc1 | 6.6 | 53.9 |  | 
23 | O=C(NCc1ccc(S(=O)(=O)c2ccc(Cl)c(F)c2)cc1)c1cc2ccncc2o1 | 18.5 | 6.5 |  | 
24 | O=C(NCc1ccc(S(=O)(=O)c2ccc(Cl)c(F)c2)cc1)c1cnc2nccn2c1 | 1.9 | 8.9 |  | 
25 | COc1cc(S(=O)(=O)c2ccc(CNC(=O)c3ccc4nccn4c3)cc2)ccc1Cl | 13.5 | 6 |  | 
26 | COc1cc(S(=O)(=O)c2ccc(CNC(=O)c3cc4ccncc4s3)cc2)ccc1Cl | 2.6 | 2.3 |  | 
27 | COc1cc(S(=O)(=O)c2ccc(CNC(=O)c3cnc4nccn4c3)cc2)ccc1Cl | 2.7 | 5.2 |  | 

Row | SMILES | IC50 (NAMPT; NAMPT enzymatic reaction) [nM] | IC50 (A2780 cells; Homo sapiens, A2780, 72 h) [nM] | IC50 (NAMPT) [nM] | IC50 (A2780 cells) [nM]
28 | COc1cc(S(=O)(=O)c2ccc(CNC(=O)c3cc4cnccc4[nH]3)cc2)ccc1Cl | 5.5 | 3.6 |  | 
29 | COc1cc(S(=O)(=O)c2ccc(CNC(=O)c3cnc4[nH]ncc4c3)cc2)ccc1Cl | 12.7 | 13 |  | 
30 | O=C(NCc1ccc(S(=O)(=O)c2ccc(Cl)cc2)cc1)c1cnc2nccn2c1 | 2.5 | 23.6 |  | 
31 | N#Cc1ccc(S(=O)(=O)c2ccc(CNC(=O)c3ccc4nccn4c3)cc2)cc1 | 16 | 14.1 |  | 
32 | O=C(NCc1ccc(S(=O)(=O)c2ccc(C3CCCCC3)cc2)cc1)c1cc2ccncc2s1 | 3.4 | 12.9 |  | 
33 | O=C(NCc1ccc(S(=O)(=O)c2ccc(C3CCCCC3)cc2)cc1)c1ccc2nccn2c1 | 17.8 | 11.7 |  | 
34 | O=C(NCc1ccc(S(=O)(=O)c2ccc(C3CCCCC3)cc2)cc1)c1cnc2nccn2c1 | 5.8 | 7.7 |  | 
35 | CCOc1ccc(S(=O)(=O)c2ccc(CNC(=O)c3ccc4nccn4c3)cc2)c(C)c1 | 6.6 | 11.1 |  | 
36 | CCOc1ccc(S(=O)(=O)c2ccc(CNC(=O)c3cc4cnccc4[nH]3)cc2)c(C)c1 | 9.2 | 12.6 |  | 
37 | CCOc1ccc(S(=O)(=O)c2ccc(CNC(=O)c3cnc4[nH]ncc4c3)cc2)c(C)c1 | 108 | 66.7 |  | 
38 | CCOc1ccc(S(=O)(=O)c2ccc(CNC(=O)c3cc4ccncc4s3)cc2)c(C)c1 | 1.2 | 13.2 |  | 
39 | CCOc1ccc(S(=O)(=O)c2ccc(CNC(=O)c3cc4ccncc4o3)cc2)c(C)c1 | 21.6 | 27.4 |  | 
40 | CCOc1ccc(S(=O)(=O)c2ccc(CNC(=O)c3ccc4nccn4c3)cc2)cc1F | 12.7 | 1.8 |  | 
41 | CCOc1ccc(S(=O)(=O)c2ccc(CNC(=O)c3cc4ccncc4s3)cc2)cc1F | 8.9 | 3.6 |  | 
42 | CCOc1ccc(S(=O)(=O)c2ccc(CNC(=O)c3cnc4nccn4c3)cc2)cc1F | 0.9 | 3.1 |  | 
43 | CCOc1ccc(S(=O)(=O)c2ccc(CNC(=O)c3cc4cnccc4[nH]3)cc2)cc1F | 20.5 | 5.4 |  | 
44 | CCOc1ccc(S(=O)(=O)c2ccc(CNC(=O)c3cnc4[nH]ncc4c3)cc2)cc1F | 9.5 | 5.2 |  | 
45 | CCOc1ccc(S(=O)(=O)c2ccc(CNC(=O)c3cnc4[nH]ncc4c3)cc2)cc1 | 15.1 | 8.4 |  | 
46 | CCOc1ccc(S(=O)(=O)c2ccc(CNC(=O)c3ccc4nccn4c3)cc2)cc1 | 4.5 | 2.9 |  | 
47 | CCOc1ccc(S(=O)(=O)c2ccc(CNC(=O)c3cnc4nccn4c3)cc2)cc1 | 2 | 6.1 |  | 
48 | CCOc1ccc(S(=O)(=O)c2ccc(CNC(=O)c3cc4ccncc4s3)cc2)cc1 | 2.1 | 4 |  | 
49 | CCc1ccc(S(=O)(=O)c2ccc(CNC(=O)c3cnc4nccn4c3)cc2)cc1 | 1.2 | 6.2 |  | 
50 | Cc1cc(S(=O)(=O)c2ccc(CNC(=O)c3cc4ccncc4o3)cc2)c(C)cc1F | 17.6 | 24.2 |  | 
51 | Cc1cc(S(=O)(=O)c2ccc(CNC(=O)c3cc4cnccc4[nH]3)cc2)c(C)cc1F | 51.4 | 12.8 |  | 
52 | O=CNc1ccc(C(=O)NCc2ccc(S(=O)(=O)c3cc(F)cc(F)c3)cc2)cn1 [5-N-({4-[(3,5-difluorobenzene)sulfonyl]phenyl}methyl)pyridine-2,5-diamido] | 1000 to 10000 | 661 |  | 
53 | Cn1ncc2c(S(=O)(=O)c3ccc(CNC(=O)c4cc5cc(O)ccc5[nH]4)cc3)cccc21 [5-hydroxy-N-{[4-(1-methyl-1H-indazole-4-sulfonyl)phenyl]methyl}-1H-indole-2-carboxamide] | 100 to 1000 | > 1000 |  | 
